# Test results as given in ChEMBL document CHEMBL4823312, “Virtual screening and biological evaluation of PPARγ antagonists as potential anti-prostate cancer agents” (Bioorg Med Chem, 2021).
# Biological target: T1, Peroxisome proliferator-activated receptor gamma (Homo sapiens, UniProt P37231)
# T1 sequence (P37231 whole entry): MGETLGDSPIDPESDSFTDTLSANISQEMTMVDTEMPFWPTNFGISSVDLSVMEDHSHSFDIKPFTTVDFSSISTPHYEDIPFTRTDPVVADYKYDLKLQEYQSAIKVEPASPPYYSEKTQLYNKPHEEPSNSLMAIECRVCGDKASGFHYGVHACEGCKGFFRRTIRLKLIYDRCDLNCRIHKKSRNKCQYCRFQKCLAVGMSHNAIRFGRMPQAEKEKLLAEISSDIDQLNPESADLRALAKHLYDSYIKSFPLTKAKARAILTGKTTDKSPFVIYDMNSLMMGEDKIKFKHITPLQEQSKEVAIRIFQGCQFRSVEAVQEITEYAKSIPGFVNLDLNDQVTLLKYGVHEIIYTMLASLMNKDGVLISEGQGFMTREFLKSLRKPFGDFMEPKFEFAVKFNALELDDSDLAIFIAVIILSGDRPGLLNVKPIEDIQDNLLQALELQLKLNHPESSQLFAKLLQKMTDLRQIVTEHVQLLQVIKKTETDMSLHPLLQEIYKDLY
# Assay: Antagonist activity at PPARgamma (unknown origin) expressed in human LNCaP cells assessed as suppression of pioglitazone-induced PPAR response element driven firefly luciferase activity measured after 24 hrs by dual luciferase reporter assay
# Assay type: cell-based
row,Structure (SMILES),IC50
1,O=C(CCCOc1ccc(Cl)cc1Cl)N[C@@H](Cc1c[nH]c2ccccc12)C(=O)O,2400 nM
2,O=C(OCc1cccc2ccc3cccc(COC(=O)c4ccccc4)c3c12)c1ccccc1,5400 nM
3,O=C(CNC(=O)Nc1ccc(NC(=O)NCC(=O)Nc2ccc(C3=NCCN3)cc2)cc1)Nc1ccc(C2=NCCN2)cc1,1600 nM
4,O=C(Nc1ccccc1C(=O)N/N=C/c1c(O)ccc2ccccc12)c1ccccc1Cl,1700 nM
5,COc1ccc(NC(=O)CC[C@H](NS(=O)(=O)c2ccc(C)cc2)C(=O)O)cc1,275000 nM
6,COc1c(OC)c(O)c2c(=O)cc(-c3ccc(O)cc3)oc2c1OC [XANTHOMICROL],5400 nM
7,COc1ccc(O)c(/C=N/c2ccccc2NS(=O)(=O)c2ccc(C)cc2)c1,2300 nM
8,CCN(CC)c1ccc(CN(CC(=O)c2ccc(Cl)c(Cl)c2)Cc2ccccc2)cc1,4500 nM
9,CC(=O)c1cc(C(C)=O)c(CC(=O)C(=O)Nc2cccc(C)c2C)cc1CC(=O)C(=O)Nc1cccc(C)c1C,2600 nM
10,O=C(O)c1ccccc1-c1ccccc1C(=O)Nc1ccc2c(c1)-c1ccccc1C2,3500 nM
11,O=C1C=C(Nc2ccccc2C(=O)CC(=O)C(=O)Nc2ccc(Cl)c(Cl)c2)c2ccccc2C1=O,2800 nM
12,COc1cc(OC)c2c(=O)cc(-c3cccnc3)oc2c1,1100 nM
13,O=S(=O)(NCCSSCCNS(=O)(=O)c1cccc2cccnc12)c1cccc2cccnc12,1500 nM
14,CC(/C=N/Nc1ccc(S(=O)(=O)/N=C/C(C)=C/c2ccccc2)cc1)=C\c1ccccc1,2300 nM
15,O=C(CCCC(=O)N/N=C/c1cccc2ccccc12)N/N=C/c1ccc2ccccc2c1,2100 nM
